Laboratory results from the NIST ThermoML archive (doi:10.1021/je900598y).
Numbers after ± are expanded uncertainties.

How the values were obtained:
[1] = excess molar enthalpy (molar enthalpy of mixing); xn = mol fraction of the nth substance listed; details: 298.15 K, Liquid, Calvet calorimetry
[2] = 298.15 K; 101.33 kPa; Liquid

CCCCC(=O)OC(=O)CCCC [pentanoic anhydride] + CCCCCCCCCCCCCC
[1]
Details | excess molar enthalpy [kcal/mol]
x1 = 0.0319 | 0.0605 ± 0.00086
x1 = 0.0618 | 0.11 ± 0.00146
x1 = 0.0899 | 0.149 ± 0.00191
x1 = 0.1164 | 0.182 ± 0.00232
x1 = 0.1414 | 0.208 ± 0.00263
x1 = 0.165 | 0.232 ± 0.00287
x1 = 0.1873 | 0.251 ± 0.00311
x1 = 0.2126 | 0.271 ± 0.00335
x1 = 0.2363 | 0.287 ± 0.00359
x1 = 0.2587 | 0.3 ± 0.00382
x1 = 0.2798 | 0.311 ± 0.00382
x1 = 0.2997 | 0.32 ± 0.00406
x1 = 0.3186 | 0.328 ± 0.00406
x1 = 0.3364 | 0.335 ± 0.0043
x1 = 0.3569 | 0.342 ± 0.0043
x1 = 0.3714 | 0.35 ± 0.0043
x1 = 0.381 | 0.352 ± 0.0043
x1 = 0.3911 | 0.355 ± 0.00454
x1 = 0.402 | 0.357 ± 0.00454
x1 = 0.413 | 0.359 ± 0.00454
x1 = 0.4294 | 0.36 ± 0.00454
x1 = 0.4312 | 0.362 ± 0.00454
x1 = 0.4416 | 0.362 ± 0.00454
x1 = 0.4524 | 0.363 ± 0.00454
x1 = 0.4638 | 0.364 ± 0.00454
x1 = 0.4757 | 0.364 ± 0.00454
x1 = 0.4883 | 0.364 ± 0.00454
x1 = 0.5015 | 0.363 ± 0.00454
x1 = 0.5127 | 0.362 ± 0.00454
x1 = 0.5245 | 0.361 ± 0.00454
x1 = 0.5369 | 0.36 ± 0.00454
x1 = 0.5498 | 0.357 ± 0.00454
x1 = 0.5633 | 0.355 ± 0.00454
x1 = 0.5776 | 0.351 ± 0.0043
x1 = 0.5926 | 0.348 ± 0.0043
x1 = 0.6049 | 0.344 ± 0.0043
x1 = 0.6178 | 0.34 ± 0.0043
x1 = 0.6313 | 0.335 ± 0.0043
x1 = 0.6454 | 0.33 ± 0.00406
x1 = 0.6601 | 0.324 ± 0.00406
x1 = 0.6754 | 0.317 ± 0.00406
x1 = 0.6916 | 0.308 ± 0.00382
x1 = 0.7052 | 0.301 ± 0.00382
x1 = 0.7194 | 0.293 ± 0.00359
x1 = 0.7341 | 0.284 ± 0.00359
x1 = 0.7495 | 0.274 ± 0.00359
x1 = 0.7655 | 0.263 ± 0.00335
x1 = 0.7822 | 0.25 ± 0.00311
x1 = 0.7997 | 0.236 ± 0.00311
x1 = 0.8145 | 0.224 ± 0.00287
x1 = 0.8299 | 0.21 ± 0.00263
x1 = 0.8459 | 0.195 ± 0.00239
x1 = 0.8625 | 0.178 ± 0.00229
x1 = 0.8798 | 0.16 ± 0.00206
x1 = 0.8978 | 0.14 ± 0.00182
x1 = 0.9133 | 0.121 ± 0.00158
x1 = 0.9294 | 0.101 ± 0.00134
x1 = 0.9461 | 0.0789 ± 0.00108
x1 = 0.9634 | 0.0549 ± 0.000789
x1 = 0.9814 | 0.0287 ± 0.000478

CCCCCC(=O)OC(=O)CCCCC [caproic anhydride] + CCCCCCCCCCCC
[1]
Details | excess molar enthalpy [kcal/mol]
x1 = 0.0213 | 0.0366 ± 0.000574
x1 = 0.0417 | 0.0668 ± 0.000932
x1 = 0.0612 | 0.0922 ± 0.00124
x1 = 0.08 | 0.114 ± 0.00151
x1 = 0.098 | 0.133 ± 0.00174
x1 = 0.1154 | 0.15 ± 0.00194
x1 = 0.1349 | 0.166 ± 0.00215
x1 = 0.1536 | 0.181 ± 0.00232
x1 = 0.1714 | 0.194 ± 0.00239
x1 = 0.1886 | 0.204 ± 0.00263
x1 = 0.205 | 0.214 ± 0.00263
x1 = 0.2208 | 0.222 ± 0.00287
x1 = 0.2374 | 0.23 ± 0.00287
x1 = 0.2533 | 0.236 ± 0.00311
x1 = 0.2625 | 0.244 ± 0.00311
x1 = 0.2688 | 0.247 ± 0.00311
x1 = 0.2754 | 0.249 ± 0.00311
x1 = 0.2824 | 0.252 ± 0.00311
x1 = 0.2897 | 0.254 ± 0.00311
x1 = 0.2974 | 0.257 ± 0.00335
x1 = 0.3056 | 0.26 ± 0.00335
x1 = 0.3134 | 0.262 ± 0.00335
x1 = 0.3215 | 0.264 ± 0.00335
x1 = 0.3301 | 0.266 ± 0.00335
x1 = 0.3392 | 0.268 ± 0.00335
x1 = 0.3471 | 0.27 ± 0.00335
x1 = 0.3555 | 0.272 ± 0.00335
x1 = 0.3642 | 0.273 ± 0.00335
x1 = 0.3733 | 0.275 ± 0.00359
x1 = 0.383 | 0.276 ± 0.00359
x1 = 0.3931 | 0.278 ± 0.00359
x1 = 0.4023 | 0.279 ± 0.00359
x1 = 0.412 | 0.279 ± 0.00359
x1 = 0.4222 | 0.28 ± 0.00359
x1 = 0.4329 | 0.28 ± 0.00359
x1 = 0.4442 | 0.281 ± 0.00359
x1 = 0.456 | 0.281 ± 0.00359
x1 = 0.4672 | 0.281 ± 0.00359
x1 = 0.4789 | 0.28 ± 0.00359
x1 = 0.4913 | 0.279 ± 0.00359
x1 = 0.5043 | 0.278 ± 0.00359
x1 = 0.5162 | 0.276 ± 0.00359
x1 = 0.5286 | 0.275 ± 0.00359
x1 = 0.5417 | 0.272 ± 0.00335
x1 = 0.5554 | 0.27 ± 0.00335
x1 = 0.5698 | 0.267 ± 0.00335
x1 = 0.585 | 0.263 ± 0.00335
x1 = 0.5987 | 0.259 ± 0.00335
x1 = 0.613 | 0.255 ± 0.00311
x1 = 0.628 | 0.251 ± 0.00311
x1 = 0.6438 | 0.245 ± 0.00311
x1 = 0.6604 | 0.239 ± 0.00311
x1 = 0.6778 | 0.232 ± 0.00287
x1 = 0.6941 | 0.224 ± 0.00287
x1 = 0.7112 | 0.217 ± 0.00263
x1 = 0.7291 | 0.208 ± 0.00263
x1 = 0.748 | 0.198 ± 0.00263
x1 = 0.7678 | 0.187 ± 0.00239
x1 = 0.7854 | 0.176 ± 0.00225
x1 = 0.8039 | 0.166 ± 0.00215
x1 = 0.8233 | 0.151 ± 0.00196
x1 = 0.8436 | 0.137 ± 0.00177
x1 = 0.8649 | 0.121 ± 0.00158
x1 = 0.8874 | 0.103 ± 0.00136
x1 = 0.9079 | 0.086 ± 0.00115
x1 = 0.9293 | 0.0676 ± 0.000932
x1 = 0.9517 | 0.0472 ± 0.000693
x1 = 0.9753 | 0.0247 ± 0.00043

CCCCCCCCCCCCCC [tetradecane]
Details | mass density [kg/m3]
[2] | 760.2 ± 0.62

CCCCCC(=O)OC(=O)CCCCC [caproic anhydride] + CCCCCCCCCCCCCC
[1]
Details | excess molar enthalpy [kcal/mol]
x1 = 0.0274 | 0.0479 ± 0.000693
x1 = 0.0533 | 0.0863 ± 0.00117
x1 = 0.0779 | 0.118 ± 0.00155
x1 = 0.1012 | 0.144 ± 0.00186
x1 = 0.1234 | 0.166 ± 0.00213
x1 = 0.1445 | 0.185 ± 0.00237
x1 = 0.1681 | 0.203 ± 0.00263
x1 = 0.1904 | 0.219 ± 0.00287
x1 = 0.2115 | 0.232 ± 0.00287
x1 = 0.2316 | 0.247 ± 0.00311
x1 = 0.2372 | 0.25 ± 0.00311
x1 = 0.2431 | 0.253 ± 0.00311
x1 = 0.2493 | 0.256 ± 0.00311
x1 = 0.2559 | 0.259 ± 0.00335
x1 = 0.2628 | 0.263 ± 0.00335
x1 = 0.2691 | 0.266 ± 0.00335
x1 = 0.2757 | 0.269 ± 0.00335
x1 = 0.2826 | 0.272 ± 0.00335
x1 = 0.2899 | 0.275 ± 0.00359
x1 = 0.2975 | 0.278 ± 0.00359
x1 = 0.3056 | 0.281 ± 0.00359
x1 = 0.3129 | 0.284 ± 0.00359
x1 = 0.3204 | 0.286 ± 0.00359
x1 = 0.3284 | 0.289 ± 0.00359
x1 = 0.3368 | 0.291 ± 0.00359
x1 = 0.3456 | 0.294 ± 0.00359
x1 = 0.3548 | 0.296 ± 0.00382
x1 = 0.363 | 0.298 ± 0.00382
x1 = 0.3715 | 0.3 ± 0.00382
x1 = 0.3805 | 0.301 ± 0.00382
x1 = 0.3899 | 0.303 ± 0.00382
x1 = 0.3998 | 0.305 ± 0.00382
x1 = 0.4012 | 0.306 ± 0.00382
x1 = 0.4103 | 0.307 ± 0.00382
x1 = 0.4199 | 0.308 ± 0.00382
x1 = 0.4299 | 0.309 ± 0.00382
x1 = 0.4404 | 0.31 ± 0.00382
x1 = 0.4514 | 0.31 ± 0.00382
x1 = 0.463 | 0.31 ± 0.00382
x1 = 0.4734 | 0.31 ± 0.00382
x1 = 0.4843 | 0.31 ± 0.00382
x1 = 0.4958 | 0.309 ± 0.00382
x1 = 0.5077 | 0.308 ± 0.00382
x1 = 0.5203 | 0.307 ± 0.00382
x1 = 0.5335 | 0.305 ± 0.00382
x1 = 0.5453 | 0.303 ± 0.00382
x1 = 0.5575 | 0.3 ± 0.00382
x1 = 0.5703 | 0.297 ± 0.00382
x1 = 0.5838 | 0.294 ± 0.00359
x1 = 0.5979 | 0.29 ± 0.00359
x1 = 0.6126 | 0.286 ± 0.00359
x1 = 0.6261 | 0.281 ± 0.00359
x1 = 0.6401 | 0.277 ± 0.00359
x1 = 0.6548 | 0.271 ± 0.00335
x1 = 0.6702 | 0.265 ± 0.00335
x1 = 0.6863 | 0.258 ± 0.00335
x1 = 0.7032 | 0.249 ± 0.00311
x1 = 0.7185 | 0.242 ± 0.00311
x1 = 0.7345 | 0.232 ± 0.00287
x1 = 0.7512 | 0.223 ± 0.00287
x1 = 0.7686 | 0.212 ± 0.00263
x1 = 0.7869 | 0.2 ± 0.00263
x1 = 0.8038 | 0.188 ± 0.00239
x1 = 0.8214 | 0.175 ± 0.00225
x1 = 0.8397 | 0.16 ± 0.00206
x1 = 0.8589 | 0.145 ± 0.00189
x1 = 0.879 | 0.127 ± 0.00165
x1 = 0.9001 | 0.108 ± 0.00143
x1 = 0.9185 | 0.0894 ± 0.0012
x1 = 0.9376 | 0.07 ± 0.000956
x1 = 0.9575 | 0.0488 ± 0.000717
x1 = 0.9783 | 0.0255 ± 0.00043

CCCCC(=O)OC(=O)CCCC [pentanoic anhydride]
Details | mass density [kg/m3]
[2] | 939.15 ± 0.4

CCCCCCCCCCCCCCCC [hexadecane]
Details | mass density [kg/m3]
[2] | 770.31 ± 0.61
